In ChEMBL document CHEMBL1201862, “PubChem BioAssay data set” (2004):
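Where inhibition never reached the appropriate level, the endpoint shown equals the highest concentration tested. Otherwise, values were interpolated linearly from a five-concentration, 48-hour dose response in 96-well plates. GI50 = concentration required for 50% inhibition of growth.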 The source made the active and inactive calls. No stated cut-off is given here; in the data, active = GI50 up to about 1.1 µM and inactive = higher.

Experiments:
Test in all cases: NCI anticancer screen, dose series, 48 h
MCF7 = test system: MCF7
NCI-H460 = test system: NCI-H460
SNB-75 = test system: SNB-75
SW-620 = test system: SW-620
NCI/ADR-RES = test system: NCI/ADR-RES
UO-31 = test system: UO-31
HCT-116 = test system: HCT-116
SF-268 = test system: SF-268
SF-539 = test system: SF-539
UACC-257 = test system: UACC-257
A498 = test system: A498
K562 = test system: K562
PC-3 = test system: PC-3
BT-549 = test system: BT-549
CAKI-1 = test system: CAKI-1
SK-MEL-28 = test system: SK-MEL-28
Hs-578T = test system: Hs-578T
HT-29 = test system: HT-29
HL-60 = test system: HL-60
SK-OV-3 = test system: SK-OV-3

Compound	GI50 (MCF7)	GI50 (NCI-H460)	GI50 (SNB-75)	GI50 (SW-620)	GI50 (NCI/ADR-RES)	GI50 (UO-31)	GI50 (HCT-116)	GI50 (SF-268)	GI50 (SF-539)	GI50 (UACC-257)	GI50 (A498)	GI50 (K562)	GI50 (PC-3)	GI50 (BT-549)	GI50 (CAKI-1)	GI50 (SK-MEL-28)	GI50 (Hs-578T)	GI50 (HT-29)	GI50 (HL-60)	GI50 (SK-OV-3)
O=C1NC(=O)C(CCC(=O)c2cccc3ccccc23)C(=O)N1	> 100 µM (inactive)	> 100 µM (inactive)	26.4 µM (inactive)	> 100 µM (inactive)	> 100 µM (inactive)	> 100 µM (inactive)	> 100 µM (inactive)	> 100 µM (inactive)	> 100 µM (inactive)	> 100 µM (inactive)	> 100 µM (inactive)	> 100 µM (inactive)	> 100 µM (inactive)	> 100 µM (inactive)	> 100 µM (inactive)	> 100 µM (inactive)	> 100 µM (inactive)	> 100 µM (inactive)	> 100 µM (inactive)	> 100 µM (inactive)
Cc1cc(O)nc2c3c(ccc12)OC(C)(C)C=C3	3.48 µM (inactive)	3.95 µM (inactive)	5 µM (inactive)	3.61 µM (inactive)	3.99 µM (inactive)	8.18 µM (inactive)	4.45 µM (inactive)	6.7 µM (inactive)	3.27 µM (inactive)	> 25.3 µM (inactive)	10.2 µM (inactive)	4.22 µM (inactive)	5.9 µM (inactive)	36.6 µM (inactive)	5.93 µM (inactive)	> 23.2 µM (inactive)	3.52 µM (inactive)	5.66 µM (inactive)	0.43 µM (active)	11.3 µM (inactive)
O=C1N=C(Nc2ccccc2Cl)N/C1=C\c1ccc(Cl)cc1Cl	31.4 µM (inactive)	49.2 µM (inactive)	29.9 µM (inactive)	46.3 µM (inactive)	45.6 µM (inactive)	> 100 µM (inactive)	38.4 µM (inactive)	> 100 µM (inactive)	37.8 µM (inactive)	75.3 µM (inactive)	33.1 µM (inactive)	9.46 µM (inactive)	33.7 µM (inactive)	> 100 µM (inactive)	> 100 µM (inactive)	99.8 µM (inactive)	> 100 µM (inactive)	> 100 µM (inactive)	0.122 µM (active)	> 100 µM (inactive)
COc1nc2ncc([C@@H](O)[C@H](O)CO)nc2c(=O)[nH]1	> 100 µM (inactive)	> 100 µM (inactive)	> 100 µM (inactive)	> 100 µM (inactive)	> 100 µM (inactive)	> 100 µM (inactive)	> 100 µM (inactive)	> 100 µM (inactive)	> 100 µM (inactive)	> 100 µM (inactive)	> 100 µM (inactive)	> 100 µM (inactive)	> 100 µM (inactive)	99.1 µM (inactive)	> 100 µM (inactive)	> 100 µM (inactive)	> 100 µM (inactive)	> 100 µM (inactive)	63.2 µM (inactive)	> 100 µM (inactive)
CC1CC[C@@]2(OC1)OC1C[C@H]3[C@@H]4CC[C@H]5CC(OC6OC(CO)C(OC7OC(CO)C(O)C(O)C7OC7OC(CO)C(O)C(O)C7O)C(O)C6O)CCC5(C)[C@H]4CCC3(C)C1[C@@H]2C (stereo partly drawn)	1.01 µM (active)	3.08 µM (inactive)	2.59 µM (inactive)	0.933 µM (active)	6.38 µM (inactive)	0.993 µM (active)	1.94 µM (inactive)	2.75 µM (inactive)	1.22 µM (inactive)	4.31 µM (inactive)	1.52 µM (inactive)	2.21 µM (inactive)	0.838 µM (active)	1.38 µM (inactive)	3.21 µM (inactive)	2.12 µM (inactive)	1.99 µM (inactive)	0.964 µM (active)	4.97 µM (inactive)	1.57 µM (inactive)
CC(=N\N)/C(C)=N/N=C(C)/C(C)=N/N	> 100 µM (inactive)	> 100 µM (inactive)	> 100 µM (inactive)	> 100 µM (inactive)	> 100 µM (inactive)	> 100 µM (inactive)	> 100 µM (inactive)	> 100 µM (inactive)	> 100 µM (inactive)	> 100 µM (inactive)	> 100 µM (inactive)	> 10 µM (inactive)	> 100 µM (inactive)	> 100 µM (inactive)	> 100 µM (inactive)	> 100 µM (inactive)	> 100 µM (inactive)	> 100 µM (inactive)	> 100 µM (inactive)	> 100 µM (inactive)
CC(=O)O[C@H]1C[C@H](O[C@H]2[C@@H](O)C[C@H](O[C@H]3[C@@H](O)C[C@H](O[C@H]4CC[C@@]5(C)[C@H](CC[C@@H]6[C@@H]5CC[C@]5(C)[C@@H](C7=CC(=O)OC7)CC[C@]65O)C4)O[C@@H]3C)O[C@@H]2C)O[C@H](C)[C@H]1O[C@@H]1O[C@H](CO)[C@@H](O)[C@H](O)[C@H]1O	0.013 µM (active)	< 0.01 µM (active)	0.0687 µM (active)	0.0202 µM (active)	< 0.0169 µM (active)	0.0242 µM (active)	< 0.01 µM (active)	< 0.0125 µM (active)	< 0.014 µM (active)	0.0726 µM (active)	0.0269 µM (active)	0.0815 µM (active)	0.0152 µM (active)	< 0.0167 µM (active)	< 0.01 µM (active)	0.136 µM (active)	< 0.01 µM (active)	0.0144 µM (active)	0.0149 µM (active)	0.0395 µM (active)
NCCc1nc(-c2nc(C(=O)O)cs2)cs1	> 100 µM (inactive)	> 100 µM (inactive)	> 100 µM (inactive)	> 100 µM (inactive)	> 100 µM (inactive)	> 100 µM (inactive)	> 100 µM (inactive)	> 100 µM (inactive)	> 100 µM (inactive)	> 100 µM (inactive)	> 100 µM (inactive)	> 100 µM (inactive)	> 100 µM (inactive)	> 100 µM (inactive)	> 100 µM (inactive)	> 100 µM (inactive)	> 100 µM (inactive)	> 100 µM (inactive)	> 100 µM (inactive)	> 100 µM (inactive)
COC(=O)C12CCC(C(F)(F)C1=O)C2(C)C (stereo not drawn)	> 100 µM (inactive)	> 100 µM (inactive)	> 100 µM (inactive)	> 100 µM (inactive)	> 100 µM (inactive)	> 100 µM (inactive)	> 100 µM (inactive)	> 100 µM (inactive)	> 100 µM (inactive)	> 100 µM (inactive)	> 100 µM (inactive)	–	> 100 µM (inactive)	> 100 µM (inactive)	> 100 µM (inactive)	> 100 µM (inactive)	> 100 µM (inactive)	> 100 µM (inactive)	> 100 µM (inactive)	> 100 µM (inactive)
COc1cc(/C=N/n2c(-c3ccccc3)n[nH]c2=O)cc(OC)c1OC	1.3 µM (inactive)	0.826 µM (active)	2.48 µM (inactive)	–	1.44 µM (inactive)	5.71 µM (inactive)	0.641 µM (active)	3.51 µM (inactive)	1.96 µM (inactive)	> 100 µM (inactive)	3.15 µM (inactive)	0.598 µM (active)	2.81 µM (inactive)	2.13 µM (inactive)	1.1 µM (active)	> 28 µM (inactive)	3.56 µM (inactive)	4.39 µM (inactive)	0.518 µM (active)	2.56 µM (inactive)
